# Data reported in patent US20050106305A1, “Beverage compositions comprising monatin and methods of making same” (Cargill, Inc., priority 2003, published 2005).
# Read-outs that look alike come from different tables or passages of the source. Where a SMILES comes first, the peptide text is derived from it.
# Assays:
# [1] = Sensory stability of monatin and aspartame at pH 2.5, 3.0, 4.0 at 40° C.; format: physicochemical; details: for Rate constant (k) of sweetness loss / half-life: pseudo-first order assumed; for SEV / Retention of Sweetness: stored 40° C., monatin ~55 ppm, aspartame 400 ppm; for half-life: phosphate/citrate buffer, read-out: Half-life (t½) of sweetness loss (converted)
# Description: The sensory stability of monatin solutions prepared at pH 2.5, 3.0 and 4.0 and stored at 40° C. was monitored for 100 days. Loss of sweetness from these solutions was compared with the losses of sweetness from aspartame solutions prepared and stored under identical conditions.
# The sensory stability of monatin (8% SEV, ˜55 ppm, synthetic blend containing approximately 96% of the 2R,4R/2S, 4S enantiometric pair and 4% of the 2R,4S/2S,4R enantiometric pair) in phosphate/citrate buffers having a pH of 2.5, 3.0, and 4.0 was examined after storage at 40° C. The stability of monatin was compared to that of aspartame (400 ppm) in the same buffers. Three sucrose reference solutions were prepared in the same phosphate/citrate buffers as the monatin and aspartame solutions. All prepared solutions were stored in the dark.
# Buffer compositions: pH 2.5 Phosphoric acid (75% solution) 0.127% (w/v) Tri-sodium citrate monohydrate 0.005% (w/v) • pH 3.0 Phosphoric acid (75% solution) 0.092% (w/v) Tri-sodium citrate monohydrate 0.031% (w/v) • pH 4.0 Phosphoric acid (75% solution) 0.071% (w/v) Tri-sodium citrate monohydrate 0.047% (w/v)
# The sweetness of each sweetener relative to sucrose was assessed in duplicate by a panel (n=8) of trained sensory evaluators experienced in the sweetness estimation procedure. All samples (in the same buffers) were served in duplicate at a temperature of 22° C.±1° C. Monatin (test) solutions, coded with 3 digit random number codes were presented individually to panelists, in random order. Sucrose reference standards, ranging from 4.0-10.0% (w/v) sucrose, increasing in steps of 0.5% (w/v) sucrose were also provided. Panelists were asked to estimate sweetness by comparing the sweetness of the test solution to the sucrose standards. This was carried out by taking 3 sips of the test solution, followed by a sip of water, followed by 3 sips of sucrose standard followed by a sip of water, etc. Panelists were encouraged to estimate the sweetness to one decimal place, e.g., 6.8, 8.5. A five minute rest period was imposed between evaluating the test solutions. Panelists were also asked to rinse well and eat a cracker to reduce any potential carry over effects.
# If a pseudo-first order breakdown reaction is assumed, a plot of logn percentage retention versus time (logn%RTN v. t) allows estimation of the half-life (t½) and rate constant (k) of sweetness loss under any given set of conditions. In so doing, the kinetics of monatin and aspartame sweetness loss may be summarized as follows in Table 25.
# [2] = Sensory evaluation of soft drinks (lemon/lime, orangeade, cola); format: in vivo; details: Lemon/lime soft drink; aspartame 500 ppm, sucralose 200 ppm, R,R monatin 42 ppm
# Description: Beverages (cola, lemon-lime and orange) were formulated and sweetened with aspartame, sucralose or R,R monatin. Qualitative evaluation was carried out.
# The term “throw” refers to dilution in water. For example, a throw of “1+4” means 1 part concentrate formulation to 4 parts water. Thus, if a concentrate formulation includes 0.021% wt/vol (i.e., 210 ppm) of R,R monatin, for example, a throw of 1+4 makes a diluted beverage containing 42 ppm (210 ppm/5) R,R monatin.
# Final ready-to-drink beverages (after throw) contained sweetener concentrations as follows:
# Evaluation of these soft drinks was carried out by a panel (n=6) of assessors who evaluated each set of drinks on separate tasting occasions.
# [3] = Taste profiling of lemon/lime carbonates and colas; format: in vivo; details: HFCS 10%, aspartame 500 ppm, sucralose 200 ppm, blends 30.8 ppm/5.0%; for Average Score: score 1, poor-5, good, sucrose 10%
# Description: Cola and lemon/lime beverages were prepared using the following formulations and sweetened with sucrose, HFCS (55% fructose), aspartame, sucralose, monatin (racemic mix described in Example 14), monatin/sucrose, or monatin/HFCS. One part of syrup was added to 5.5 parts carbonated water and evaluated.
# Assessments were carried out ‘double blind’ by a panel of trained tasters. The sucrose-sweetened product was identified as the control and all other products randomly coded. Panelists were asked to assess the randomly coded sample relative to the control for the following attributes:
# Panelists also were asked assign a score (1; poor-5; good) for the quality of the sweetener system. A summary of the comments generated together with the average score awarded is presented in Tables 12 and 13 for lemon/lime carbonates and colas, respectively. […] Blends of monatin/carbohydrate rated higher. In the cola, monatin was similar to aspartame.
# [4] = cola, sucrose 10% (control), monatin 80 ppm
# [5] = lemon/lime carbonate, sucrose 10% (control), monatin 67 ppm
compound,measurement,setting,value
"COC(=O)[C@H](Cc1ccccc1)NC(=O)[C@@H](N)CC(=O)O [Aspartame, aspartame] (H-Asp-Phe-OMe)",Sweetness Retained,[1]; after 100 days storage at pH 2.5 at 40° C.,11%
same,Sweetness Retained,[1]; after 100 days storage at pH 3.0 at 40° C.,31%
same,Sweetness Retained,[1]; after 100 days storage at pH 4.0 at 40° C.,58%
same,Rate constant (k) of sweetness loss,"[1]; pH 2.5, 40° C.",0.013 day⁻¹
same,SEV,"[1]; pH 2.5 buffer, day 0",7.34 % sucrose
same,Retention of Sweetness,"[1]; pH 2.5 buffer, day 1",94.0%
same,SEV,"[1]; pH 2.5 buffer, day 1",6.90 % sucrose
same,Retention of Sweetness,"[1]; pH 2.5 buffer, day 2",92.6%
same,SEV,"[1]; pH 2.5 buffer, day 2",6.80 % sucrose
same,Retention of Sweetness,"[1]; pH 2.5 buffer, day 3",89.9%
same,SEV,"[1]; pH 2.5 buffer, day 3",6.60 % sucrose
same,Retention of Sweetness,"[1]; pH 2.5 buffer, day 4",85.7%
same,SEV,"[1]; pH 2.5 buffer, day 4",6.29 % sucrose
same,Retention of Sweetness,"[1]; pH 2.5 buffer, day 7",81.9%
same,SEV,"[1]; pH 2.5 buffer, day 7",6.01 % sucrose
same,Retention of Sweetness,"[1]; pH 2.5 buffer, day 8",81.5%
same,SEV,"[1]; pH 2.5 buffer, day 8",5.98 % sucrose
same,Retention of Sweetness,"[1]; pH 2.5 buffer, day 9",81.3%
same,SEV,"[1]; pH 2.5 buffer, day 9",5.97 % sucrose
same,Retention of Sweetness,"[1]; pH 2.5 buffer, day 11",79.8%
same,SEV,"[1]; pH 2.5 buffer, day 11",5.86 % sucrose
same,Retention of Sweetness,"[1]; pH 2.5 buffer, day 50",57.1%
same,SEV,"[1]; pH 2.5 buffer, day 50",4.19 % sucrose
same,Retention of Sweetness,"[1]; pH 2.5 buffer, day 100",10.9%
same,SEV,"[1]; pH 2.5 buffer, day 100",0.80 % sucrose
same,Rate constant (k) of sweetness loss,"[1]; pH 3.0, 40° C.",0.009 day⁻¹
same,SEV,"[1]; pH 3.0 buffer, day 0",7.15 % sucrose
same,Retention of Sweetness,"[1]; pH 3.0 buffer, day 1",96.5%
same,SEV,"[1]; pH 3.0 buffer, day 1",6.90 % sucrose
same,Retention of Sweetness,"[1]; pH 3.0 buffer, day 2",96.1%
same,SEV,"[1]; pH 3.0 buffer, day 2",6.87 % sucrose
same,Retention of Sweetness,"[1]; pH 3.0 buffer, day 3",92.3%
same,SEV,"[1]; pH 3.0 buffer, day 3",6.60 % sucrose
same,Retention of Sweetness,"[1]; pH 3.0 buffer, day 4",89.9%
same,SEV,"[1]; pH 3.0 buffer, day 4",6.43 % sucrose
same,Retention of Sweetness,"[1]; pH 3.0 buffer, day 7",86.3%
same,SEV,"[1]; pH 3.0 buffer, day 7",6.17 % sucrose
same,Retention of Sweetness,"[1]; pH 3.0 buffer, day 8",82.9%
same,SEV,"[1]; pH 3.0 buffer, day 8",5.93 % sucrose
same,Retention of Sweetness,"[1]; pH 3.0 buffer, day 9",83.1%
same,SEV,"[1]; pH 3.0 buffer, day 9",5.94 % sucrose
same,Retention of Sweetness,"[1]; pH 3.0 buffer, day 11",81.5%
same,SEV,"[1]; pH 3.0 buffer, day 11",5.83 % sucrose
same,Retention of Sweetness,"[1]; pH 3.0 buffer, day 50",65.9%
same,SEV,"[1]; pH 3.0 buffer, day 50",4.71 % sucrose
same,Retention of Sweetness,"[1]; pH 3.0 buffer, day 100",30.8%
same,SEV,"[1]; pH 3.0 buffer, day 100",2.20 % sucrose
same,Rate constant (k) of sweetness loss,"[1]; pH 4.0, 40° C.",0.005 day⁻¹
same,SEV,"[1]; pH 4.0 buffer, day 0",7.10 % sucrose
same,Retention of Sweetness,"[1]; pH 4.0 buffer, day 3",95.1%
same,SEV,"[1]; pH 4.0 buffer, day 3",6.75 % sucrose
same,Retention of Sweetness,"[1]; pH 4.0 buffer, day 8",87.8%
same,SEV,"[1]; pH 4.0 buffer, day 8",6.23 % sucrose
same,Retention of Sweetness,"[1]; pH 4.0 buffer, day 11",84.8%
same,SEV,"[1]; pH 4.0 buffer, day 11",6.02 % sucrose
same,Retention of Sweetness,"[1]; pH 4.0 buffer, day 17",81.0%
same,SEV,"[1]; pH 4.0 buffer, day 17",5.75 % sucrose
same,Retention of Sweetness,"[1]; pH 4.0 buffer, day 24",82.4%
same,SEV,"[1]; pH 4.0 buffer, day 24",5.85 % sucrose
same,Retention of Sweetness,"[1]; pH 4.0 buffer, day 50",74.5%
same,SEV,"[1]; pH 4.0 buffer, day 50",5.29 % sucrose
same,Retention of Sweetness,"[1]; pH 4.0 buffer, day 100",57.7%
same,SEV,"[1]; pH 4.0 buffer, day 100",4.10 % sucrose
same,half-life,"[1]; pH 2.5, 40° C.",55 days
same,half-life,"[1]; pH 3.0, 40° C.",75 days
same,half-life,"[1]; pH 4.0, 40° C.",140 days
same,Comments (sensory evaluation),[2],Balanced sweetness/acidity profile. Very
same,Aftertaste,[3]; [4],Lingering sweetness
same,Flavor Profile,[3]; [4],"Sweet flavor, flatter"
same,Mouthfeel,[3]; [4],Thinner mouthfeel
same,Sweetness Profile,[3]; [4],Delayed sweetness
same,Flavor Profile,[3]; [5],Slightly lacking upfront.
same,Sweetness Profile,[3]; [5],Sweetness onset quite
same,Average Score,"[3]; cola, monatin 80 ppm",3.3
same,Average Score,"[3]; lemon/lime carbonate, monatin 67 ppm",4.0
